Experimental data as given in US10168342B2, “Lipid probes and uses thereof” (THE SCRIPPS RESEARCH INSTITUTE, priority 2015, dated 2019).
Where two headings read alike, the source gives them in different places.

Tests used:
[1] = target: AEA-DA lipid probe targets in Neuro2a cells (Mus musculus, UniProt P70699)
[2] = target: T1, AEA-DA lipid probe targets in Neuro2a cells (Mus musculus, UniProt P43883)
T1 sequence (P43883 1-425): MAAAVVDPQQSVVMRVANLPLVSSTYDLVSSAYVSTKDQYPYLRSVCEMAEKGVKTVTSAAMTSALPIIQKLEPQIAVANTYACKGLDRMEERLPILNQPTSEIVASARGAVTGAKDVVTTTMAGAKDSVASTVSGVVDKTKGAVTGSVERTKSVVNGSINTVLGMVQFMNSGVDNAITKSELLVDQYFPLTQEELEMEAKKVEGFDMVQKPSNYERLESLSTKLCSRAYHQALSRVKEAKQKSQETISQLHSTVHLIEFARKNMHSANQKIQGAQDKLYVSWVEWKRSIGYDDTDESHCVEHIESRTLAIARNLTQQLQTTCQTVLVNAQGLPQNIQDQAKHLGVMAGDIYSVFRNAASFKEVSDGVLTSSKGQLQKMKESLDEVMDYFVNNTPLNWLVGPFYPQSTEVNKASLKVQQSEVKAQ

[3] = target: T2, AEA-DA lipid probe targets in Neuro2a cells (Mus musculus, UniProt Q8R2Y0); details: for SILAC ratio, ABHD6 (Q8R2Y0): Neuro2a cells, AEA-DA probe
T2 sequence (Q8R2Y0 1-336): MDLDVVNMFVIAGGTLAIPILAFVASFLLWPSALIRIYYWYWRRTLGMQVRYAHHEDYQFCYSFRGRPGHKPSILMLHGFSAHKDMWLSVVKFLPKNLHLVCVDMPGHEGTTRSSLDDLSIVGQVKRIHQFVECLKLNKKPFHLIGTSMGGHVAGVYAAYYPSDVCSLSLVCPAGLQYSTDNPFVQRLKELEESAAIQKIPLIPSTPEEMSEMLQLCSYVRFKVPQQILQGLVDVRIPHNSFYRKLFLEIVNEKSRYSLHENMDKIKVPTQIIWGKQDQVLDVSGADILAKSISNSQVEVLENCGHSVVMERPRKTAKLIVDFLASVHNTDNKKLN

[4] = target: T3, AEA-DA lipid probe targets in Neuro2a cells (Mus musculus, UniProt Q8BMK4)
T3 sequence (Q8BMK4 1-575): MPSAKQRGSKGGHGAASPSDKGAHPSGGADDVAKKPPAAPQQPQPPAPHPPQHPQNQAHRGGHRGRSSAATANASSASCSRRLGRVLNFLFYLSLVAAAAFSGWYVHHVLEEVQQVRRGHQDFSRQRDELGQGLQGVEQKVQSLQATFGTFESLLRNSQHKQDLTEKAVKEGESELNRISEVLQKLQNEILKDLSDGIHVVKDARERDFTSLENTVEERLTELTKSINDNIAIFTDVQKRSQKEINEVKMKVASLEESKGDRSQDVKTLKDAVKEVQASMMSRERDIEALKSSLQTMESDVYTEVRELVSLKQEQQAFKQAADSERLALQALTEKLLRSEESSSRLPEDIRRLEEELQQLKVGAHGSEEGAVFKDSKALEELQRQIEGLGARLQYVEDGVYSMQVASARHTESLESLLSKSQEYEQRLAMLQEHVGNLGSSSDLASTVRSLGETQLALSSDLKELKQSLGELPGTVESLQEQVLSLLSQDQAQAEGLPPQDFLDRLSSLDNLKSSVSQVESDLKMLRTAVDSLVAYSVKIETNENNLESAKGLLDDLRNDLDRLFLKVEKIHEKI

[5] = target: T4, AEA-DA lipid probe targets in Neuro2a cells (Mus musculus, UniProt Q8VC28)
T4 sequence (Q8VC28 1-323): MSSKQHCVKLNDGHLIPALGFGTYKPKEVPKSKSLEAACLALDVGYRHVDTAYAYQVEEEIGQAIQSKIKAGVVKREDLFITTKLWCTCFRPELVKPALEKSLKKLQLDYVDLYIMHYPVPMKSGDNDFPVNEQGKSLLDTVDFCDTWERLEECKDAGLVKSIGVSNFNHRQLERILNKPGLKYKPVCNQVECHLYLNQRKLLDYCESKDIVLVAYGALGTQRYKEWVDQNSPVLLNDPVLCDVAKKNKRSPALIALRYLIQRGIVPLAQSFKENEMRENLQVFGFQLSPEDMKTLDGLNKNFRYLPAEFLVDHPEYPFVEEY

[6] = target: T5, AEA-DA lipid probe targets in Neuro2a cells (Mus musculus, UniProt Q9Z0R9); details: for SILAC ratio, FADS2 (Q9Z0R9): Neuro2a cells, AEA-DA probe
T5 sequence (Q9Z0R9 1-444): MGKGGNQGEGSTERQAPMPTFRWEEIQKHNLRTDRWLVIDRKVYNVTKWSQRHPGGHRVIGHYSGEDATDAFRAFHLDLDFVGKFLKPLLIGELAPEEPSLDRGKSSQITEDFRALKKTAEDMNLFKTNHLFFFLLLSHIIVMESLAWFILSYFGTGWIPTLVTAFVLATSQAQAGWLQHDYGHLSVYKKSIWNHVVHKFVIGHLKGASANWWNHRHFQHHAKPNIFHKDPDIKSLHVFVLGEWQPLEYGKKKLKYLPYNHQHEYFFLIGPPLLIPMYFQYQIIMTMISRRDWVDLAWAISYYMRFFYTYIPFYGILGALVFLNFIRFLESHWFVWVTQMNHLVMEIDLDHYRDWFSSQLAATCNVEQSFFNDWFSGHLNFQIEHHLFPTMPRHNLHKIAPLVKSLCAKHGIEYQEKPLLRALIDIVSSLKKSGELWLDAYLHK

[7] = target: T6, AEA-DA lipid probe targets in Neuro2a cells (Mus musculus, UniProt Q5XJY4)
T6 sequence (Q5XJY4 51-377): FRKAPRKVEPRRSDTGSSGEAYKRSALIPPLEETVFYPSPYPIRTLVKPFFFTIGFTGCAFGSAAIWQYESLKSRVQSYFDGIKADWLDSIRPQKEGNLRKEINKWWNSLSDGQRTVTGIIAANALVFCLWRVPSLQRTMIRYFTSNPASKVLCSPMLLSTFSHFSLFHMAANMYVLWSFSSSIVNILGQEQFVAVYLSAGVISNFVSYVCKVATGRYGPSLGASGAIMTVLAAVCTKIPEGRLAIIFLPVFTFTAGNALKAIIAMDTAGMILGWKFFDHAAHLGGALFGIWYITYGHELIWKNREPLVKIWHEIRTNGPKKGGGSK

Sequence of AEA-DA lipid probe targets in Neuro2a cells (Mus musculus, UniProt P70699) (P70699 70-953): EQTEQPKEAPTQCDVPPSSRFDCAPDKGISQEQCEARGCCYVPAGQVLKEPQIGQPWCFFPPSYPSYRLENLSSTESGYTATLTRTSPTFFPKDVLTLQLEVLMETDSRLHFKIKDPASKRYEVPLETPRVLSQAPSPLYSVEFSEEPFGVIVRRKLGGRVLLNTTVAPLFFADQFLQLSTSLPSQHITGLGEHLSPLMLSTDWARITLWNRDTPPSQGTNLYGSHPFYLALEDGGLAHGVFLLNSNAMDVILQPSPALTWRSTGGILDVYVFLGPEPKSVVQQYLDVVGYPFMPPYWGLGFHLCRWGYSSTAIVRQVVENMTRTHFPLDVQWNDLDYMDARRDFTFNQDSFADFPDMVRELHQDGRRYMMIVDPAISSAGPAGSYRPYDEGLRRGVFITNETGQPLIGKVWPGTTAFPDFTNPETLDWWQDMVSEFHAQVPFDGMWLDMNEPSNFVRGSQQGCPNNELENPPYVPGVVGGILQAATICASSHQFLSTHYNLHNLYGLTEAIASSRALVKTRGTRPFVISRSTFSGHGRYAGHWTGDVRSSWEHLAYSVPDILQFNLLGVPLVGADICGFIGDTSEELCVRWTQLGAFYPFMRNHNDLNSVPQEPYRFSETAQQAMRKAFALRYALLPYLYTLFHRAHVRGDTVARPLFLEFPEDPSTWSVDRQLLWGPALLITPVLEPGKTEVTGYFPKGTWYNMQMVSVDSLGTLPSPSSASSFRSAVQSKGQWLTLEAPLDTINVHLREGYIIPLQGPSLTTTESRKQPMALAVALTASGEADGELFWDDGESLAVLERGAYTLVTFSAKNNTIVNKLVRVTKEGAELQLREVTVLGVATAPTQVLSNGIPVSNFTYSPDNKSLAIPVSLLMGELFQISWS

Compound | SILAC ratio Gaa ([1]; competitor 25 μM) | SILAC ratio, Plin2 ([2]; competitor 25 μM) | SILAC ratio, ABHD6 (Q8R2Y0) ([3]; competitor 25 μM) | SILAC ratio, Abhd6 ([3]; competitor 25 μM) | SILAC ratio, Ckap4 ([4]; competitor 25 μM) | SILAC ratio Akr1c13 ([5]; competitor 25 μM) | SILAC ratio, FADS2 (Q9Z0R9) ([6]; competitor 25 μM) | SILAC ratio, Fads2 ([6]; competitor 25 μM) | SILAC ratio Parl ([7]; competitor 25 μM) | other results
CCCCC/C=C\C/C=C\C/C=C\C/C=C\CCCC(=O)NCCO [AEA, anandamide, reference compound] | – | – | – | – | – | – | – | – | – | SILAC ratio Gaa ([1]; competitor 200 μM): 1.4; SILAC ratio, Plin2 ([2]; competitor 200 μM): 1.4; SILAC ratio, ABHD6 (Q8R2Y0) ([3]; competitor 200 μM): 2.3; SILAC ratio, Abhd6 ([3]; competitor 200 μM): 2.3; SILAC ratio, Ckap4 ([4]; competitor 200 μM): 2.0; SILAC ratio Akr1c13 ([5]; competitor 200 μM): 1.7; SILAC ratio, FADS2 (Q9Z0R9) ([6]; competitor 200 μM): 2.5; SILAC ratio, Fads2 ([6]; competitor 200 μM): 2.5; SILAC ratio Parl ([7]; competitor 200 μM): 1.3
O=C(/C=C/c1cccnc1)NCCCCC1CCN(C(=O)c2ccccc2)CC1 [FK-866, reference compound] | 1.1 | 1.0 | 1.7 | 1.7 | 1.1 | 1.0 | 1.2 | 1.2 | 1.3 | –
CN1CCN(C(=O)c2c(-c3ccccc3)c3cc([N+](=O)[O-])ccc3n2C)CC1 [KML110, (1-Methyl-5-nitro-3-phenyl-1H-indol-2-yl)(4-methylpiperazin-1-yl)methanone] | 1.6 | 2.7 | – | 2.6 | 1.4 | 1.1 | – | 1.4 | 1.3 | –
CN1CCN(C(=O)c2[nH]c3ccc([N+](=O)[O-])cc3c2-c2ccccc2)CC1 [MJN228, (4-Methylpiperazin-1-yl)(5-nitro-3-phenyl-1H-indol-2-yl)methanone] | 1.2 | 3.2 | 1.7 | 1.7 | 1.4 | 1.0 | 1.8 | 1.8 | 1.4 | SILAC ratio Gaa ([1]; competitor 10 μM): 1.0; SILAC ratio Gaa ([1]; competitor 50 μM): 1.4; SILAC ratio Gaa ([1]; competitor 100 μM): 1.2; SILAC ratio, Plin2 ([2]; competitor 10 μM): 1.8; SILAC ratio, Plin2 ([2]; competitor 50 μM): 20.0; SILAC ratio, Plin2 ([2]; competitor 100 μM): 20.0; SILAC ratio, Abhd6 ([3]; competitor 10 μM): 1.2; SILAC ratio, Abhd6 ([3]; competitor 50 μM): 2.3; SILAC ratio, Abhd6 ([3]; competitor 100 μM): 2.9; SILAC ratio, Ckap4 ([4]; competitor 10 μM): 1.3; SILAC ratio, Ckap4 ([4]; competitor 50 μM): 1.3; SILAC ratio, Ckap4 ([4]; competitor 100 μM): 1.8; SILAC ratio Akr1c13 ([5]; competitor 50 μM): 1.0; SILAC ratio, Fads2 ([6]; competitor 10 μM): 1.3; SILAC ratio, Fads2 ([6]; competitor 50 μM): 1.9; SILAC ratio, Fads2 ([6]; competitor 100 μM): 2.8; SILAC ratio Parl ([7]; competitor 10 μM): 1.3; SILAC ratio Parl ([7]; competitor 50 μM): 1.1; SILAC ratio Parl ([7]; competitor 100 μM): 1.9
C=CCN(C)CCCCCCOc1ccc(C(=O)c2ccc(Br)cc2)c(F)c1 [Ro 48-8071, reference compound] | 0.5 | 1.8 | 1.2 | 1.2 | 1.1 | 1.0 | 1.2 | 1.2 | 1.1 | –
